Reference: US20200254014A1, “ANTIMICROBIAL COMPOSITIONS AND METHODS FOR THEIR PRODUCTION” (National University of Ireland, Galway, priority 2013, published 2020)

Columns and labels:
[1] = test system: E. coli ATCC 25922; experiment: MIC of iodine based antimicrobials in absence and presence of organic material; type: cell-based
From the text: As a comparison, PVP-1 or povidone iodine, used frequently in hospital setting as a topical antiseptic, was used as a source of free iodine (12).

[2] = test system: E. coli ATCC 25922; type: cell-based
Protocol: In an attempt to induce a tolerance to an antimicrobial, the micro-broth dilution method was utilised, with repeated passaging, with E. coli ATCC 25922 and a number of antibiotics, as well as the composition of the invention containing hydrogen peroxide and potassium iodide. […] Doubling dilutions of antimicrobial compositions were made using a 96 well plate. The well contents were inoculated with 10^4 cfu ml^−1 E. coli ATCC 25922 and allowed to incubate.

[3] = test system: S. aureus BH1CC (MRSA); conditions: strain isolated from Beaumont hospital; cited from earlier work

OO [Example H2O2, hydrogen peroxide]
MIC ([1]; broth): 20 to 40 µg/mL

C[C@H]1COc2c(N3CCN(C)CC3)c(F)cc3c(=O)c(C(=O)O)cn1c23 [levofloxacin]
increase in tolerance versus pre-passaging ([2]; after 10 passages): 8 times

Cc1onc(-c2ccccc2)c1C(=O)N[C@@H]1C(=O)N2[C@@H]1SC(C)(C)[C@@H]2C(=O)O [oxacillin]
oxacillin MIC [3]: > 256 µg/mL

polymyxin B
resistance of the organism after passaging in presence of the antibiotic ([2]; after only 8 passages): completely resistant

polyvinylpyrrilidone, PVP-I, also known as povidone-iodine
MIC ([1]; in LB): >250 µg/mL | MIC ([1]; milk): >250 µg/mL | MIC ([1]; saline): 1 to 2 µg/mL
